29 compounds from patent publication US9434734B2, “Substituted pyrazoloquinazolinones and pyrroloquinazolinones as allosteric modulators of group II metabotropic glutamate receptors” (Domain Therapeutics, priority 2012, dated 2016) can be followed below.

For data set [1], the target named is T1, human mGluR2 (hmGluR2) transiently over-expressed in HEK-293 cells (Homo sapiens, UniProt Q14416).
T1 construct: expressed in transfected cells; host or cells: HEK-293 cells, transient co-transfection by electroporation
Nature of the data set: Human mGluR2 negative allosteric modulator evaluation using Ca++ functional assay (agonist and NAM activity). It counts as cell-based. The note with it: hmGluR2 in HEK-293 cells, EC80 glutamate, Fluo4AM calcium readout; read-out: mGluR2 negative allosteric modulator activity IC50. As to the method: Human mGluR2 Negative Allosteric Modulator Evaluation Using Ca^++ Functional Assay
Compounds of the present invention were tested successively for their agonist and negative allosteric modulator activities on human mGluR2 (hmGluR2) transiently over-expressed in HEK-293 cells. They exert agonist activity if they are able to activate mGluR2 by themselves, i.e., in absence of the endogenous agonist glutamate; and they exert negative allosteric modulator activity if they decrease the action of the endogenous agonist glutamate.
HEK-293 cells were maintained in Modified Eagle's Medium supplemented with 10% Foetal Calf Serum, 1% Penicillin/Streptomycin and 1% nonessential amino acids at 37° C./5% CO2.
Cells were plated after transfection onto polyornithine coated, clear bottom, black-walled, 96-well plates and cultured for 24 h.
Receptor activity was detected by changes in intracellular calcium measured using the fluorescent Ca^2+ sensitive dye, Fluo4AM (Molecular Probes).
The day of the assay, medium was aspirated and replaced during 3 hours by medium without serum supplemented with 1% Glutamax, 1% Penicillin/Streptomycin and 1% nonessential amino acids. Then, cells were washed with freshly prepared buffer B (HBSS 1× (PAA), Hepes 20 mM, MgSO4-7H2O 1 mM, Na2CO3 3.3 mM, CaCl2-2H2O 1.3 mM, 0.5% BSA, Probenecid 2.5 mM) and loaded at 37° C./5% CO2 for 1.5 hours with buffer B containing 1 μM Fluo4AM, 0.1 mg/mL Pluronic Acid, 7 μg/mL Glutamate Pyruvate Transaminase and 2 mM sodium pyruvate. Afterwards cells were washed twice with buffer B and 50 μL of this buffer were added to each well.
Agonist and negative allosteric modulator activities of compounds were consecutively evaluated on the same cells plate. […] Then, the cells were stimulated by an EC80 glutamate concentration and fluorescence was recorded for additional 60 s. EC80 glutamate concentration is the concentration giving 80% of the maximal glutamate response. Agonist and/or negative allosteric modulator activity(ies) were evaluated in comparison to basal signal or signal evoked by EC80 glutamate alone, respectively.
For potency determination, a dose-response test was performed using 8 concentrations of each compound of the invention. Dose-response curves were fitted using the sigmoidal dose-response (variable slope) analysis in GraphPad Prism program (Graph Pad Inc) and EC50 of agonist/IC50 of negative allosteric modulator activity was calculated. Dose-response experiments were all performed in duplicate, two times independently.

Where only a bound is given, the exact number is not on record here.

T1 sequence (Q14416 19-872): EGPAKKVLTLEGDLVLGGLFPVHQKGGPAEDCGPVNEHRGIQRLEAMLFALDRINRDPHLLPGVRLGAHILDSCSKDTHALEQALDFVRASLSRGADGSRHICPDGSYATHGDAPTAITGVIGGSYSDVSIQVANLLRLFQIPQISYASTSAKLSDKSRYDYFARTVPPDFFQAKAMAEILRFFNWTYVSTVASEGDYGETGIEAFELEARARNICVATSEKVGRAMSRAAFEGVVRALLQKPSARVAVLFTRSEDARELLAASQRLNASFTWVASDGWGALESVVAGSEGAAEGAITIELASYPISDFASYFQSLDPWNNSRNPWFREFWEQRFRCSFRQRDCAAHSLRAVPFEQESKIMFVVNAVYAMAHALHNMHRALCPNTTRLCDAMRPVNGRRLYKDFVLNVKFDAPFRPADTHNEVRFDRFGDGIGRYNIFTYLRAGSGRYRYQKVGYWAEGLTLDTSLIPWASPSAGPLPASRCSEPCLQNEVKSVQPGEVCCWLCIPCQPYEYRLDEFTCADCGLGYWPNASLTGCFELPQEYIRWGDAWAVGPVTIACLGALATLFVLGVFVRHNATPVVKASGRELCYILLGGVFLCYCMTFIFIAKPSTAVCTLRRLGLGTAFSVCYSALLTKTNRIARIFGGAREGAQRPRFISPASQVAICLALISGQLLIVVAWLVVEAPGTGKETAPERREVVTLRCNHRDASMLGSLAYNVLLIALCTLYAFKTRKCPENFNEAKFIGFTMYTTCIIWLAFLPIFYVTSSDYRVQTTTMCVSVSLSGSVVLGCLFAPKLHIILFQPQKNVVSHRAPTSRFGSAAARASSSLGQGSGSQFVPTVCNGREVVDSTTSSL

Usually melting point stands for the temperature of the solid-liquid transition. The IC50 is the concentration that gives 50% inhibition. Take `Cn1c(=O)c2ccc(-c3ccc(N)cc3)cc2n2nc(-c3ccccc3)cc12` [Example 3, 8-(4-Amino-phenyl)-4-methyl-2-phenyl-4H-pyrazolo[1,5-a]quinazolin-5-one]: the melting point is 173 to 175 °C. Moreover, the IC50 in data set [1] was less than 1000 nM.
In the same order, the values of `Cn1c(=O)c2ccc(-c3cn[nH]c3)cc2n2nc(-c3ccccc3)cc12` [Example 6, 4-Methyl-2-phenyl-8-(1H-pyrazol-4-yl)-4H-pyrazolo[1,5-a]quinazolin-5-one] are more than 250 °C and less than 1000 nM.
In turn, `Cn1c(=O)c2ccc(-c3ccc4nccn4c3)cc2n2nc(-c3ccccc3)cc12` [Example 8, 8-Imidazo[1,2-a]pyridin-6-yl-4-methyl-2-phenyl-4H-pyrazolo[1,5-a]quinazolin-5-one] displayed a melting point of more than 250 °C. The concentration for half-maximal inhibition (IC50) in data set [1] is less than 1000 nM.
In the same order, the values of `Cn1c(=O)c2ccc(-c3ccc(S(N)(=O)=O)cc3)cc2n2nc(-c3ccccc3)cc12` [Example 10, 4-(4-Methyl-5-oxo-2-phenyl-4,5-dihydro-pyrazolo[1,5-a]quinazolin-8-yl)-benzenesulfonamide] are more than 250 °C and less than 1000 nM.
For `CC(=O)c1cccc(-c2ccc3c(=O)n(C)c4cc(-c5ccccc5)nn4c3c2)c1` [Example 14, 8-(3-Acetyl-phenyl)-4-methyl-2-phenyl-4H-pyrazolo[1,5-a]quinazolin-5-one], the melting point was in the range of 207 to 209 °C. In addition, the 50% inhibitory concentration (IC50) in data set [1] is less than 1000 nM.
In the same order, the values of `Cc1n[nH]c(C)c1-c1ccc2c(=O)n(C)c3cc(-c4ccccc4)nn3c2c1` [Example 15, 8-(3,5-Dimethyl-1H-pyrazol-4-yl)-4-methyl-2-phenyl-4H-pyrazolo[1,5-a]quinazolin-5-one] are more than 250 °C and less than 1000 nM.
For `Cn1cc(-c2ccc3c(=O)n(C)c4cc(-c5ccccc5)nn4c3c2)cn1` [Example 16, 4-Methyl-8-(1-methyl-1H-pyrazol-4-yl)-2-phenyl-4H-pyrazolo[1,5-a]quinazolin-5-one], the melting point is more than 250 °C. In data set [1], the IC50 was less than 1000 nM.
In the same order, the values of `Cn1c(=O)c2ccc(-c3cc[nH]n3)cc2n2nc(-c3ccccc3)cc12` [Example 17, 4-Methyl-2-phenyl-8-(1H-pyrazol-3-yl)-4H-pyrazolo[1,5-a]quinazolin-5-one] are 245 to 249 °C and less than 1000 nM.
In the same order, the values of `Cc1n[nH]cc1-c1ccc2c(=O)n(C)c3cc(-c4ccccc4)nn3c2c1` [Example 18, 4-Methyl-8-(3-methyl-1H-pyrazol-4-yl)-2-phenyl-4H-pyrazolo[1,5-a]quinazolin-5-one] are 174 to 176 °C and less than 1000 nM.
In the same order, the values of `Cn1c(=O)c2ccc(-c3c[nH]nc3C(F)(F)F)cc2n2nc(-c3ccccc3)cc12` [Example 19, 4-Methyl-2-phenyl-8-(3-trifluoromethyl-1H-pyrazol-4-yl)-4H-pyrazolo[1,5-a]quinazolin-5-one] are more than 250 °C and less than 1000 nM.
In the case of `Cn1c(=O)c2ccc(-c3ccc(N)nc3)cc2n2nc(C(C)(C)C)cc12` [Example 52, 8-(6-Amino-pyridin-3-yl)-2-tert-butyl-4-methyl-4H-pyrazolo[1,5-a]quinazolin-5-one], the IC50 in data set [1] was less than 1000 nM.
With `Cl.[2H]C([2H])([2H])n1c(=O)c2ccc(-c3ccc(N)nc3)cc2n2nc(CCOC)cc12` [Example 55, 8-(6-Amino-pyridin-3-yl)-2-(2-methoxy-ethyl)-4-methyl(D3)-4H-pyrazolo[1,5-a]quinazolin-5-one], the IC50 in data set [1] was less than 1000 nM.
Same read-out and setting: to `Cl.[2H]C([2H])([2H])n1c(=O)c2ccc(-c3ccc(N)nc3)cc2n2nc(C3CCCC3)cc12` [Example 67, 8-(6-Amino-pyridin-3-yl)-2-cyclopentyl-4-methyl(D3)-4H-pyrazolo[1,5-a]quinazolin-5-one] belongs less than 1000 nM; to `Cl.[2H]C([2H])([2H])n1c(=O)c2ccc(-c3cc(C)nc(C)c3)cc2n2nc(C3CCCC3)cc12` [Example 68, 2-Cyclopentyl-8-(2,6-dimethyl-pyridin-4-yl)-4-methyl(D3)-4H-pyrazolo[1,5-a]quinazolin-5-one], less than 1000 nM.
Take `Cn1c(=O)c2ccc(-c3ccc(N)nc3)cc2n2nc(C3CCCCCC3)cc12` [Example 76, 8-(6-Amino-pyridin-3-yl)-2-cycloheptyl-4-methyl-4H-pyrazolo[1,5-a]quinazolin-5-one]: the 50% inhibitory concentration (IC50) in data set [1] is less than 1000 nM.
The same measure, in the same setting: next, `CCn1c(=O)c2ccc(-c3cc(C)nc(C)c3)cc2n2nc(C3CCCCCC3)cc12` [Example 78, 2-Cycloheptyl-8-(2,6-dimethyl-pyridin-4-yl)-4-ethyl-4H-pyrazolo[1,5-a]quinazolin-5-one]: less than 1000 nM; `Cc1cc(-c2ccc3c(=O)n(C)c4cc(C5CCOCC5)nn4c3c2)ccn1` [Example 93, 4-Methyl-8-(2-methyl-pyridin-4-yl)-2-(tetrahydro-pyran-4-yl)-4H-pyrazolo[1,5-a]quinazolin-5-one]: less than 1000 nM.
On to `Cc1ccc(-c2ccc3c(=O)n(C)c4cc(C5CCOCC5)nn4c3c2)cn1` [Example 95, 4-Methyl-8-(6-methyl-pyridin-3-yl)-2-(tetrahydro-pyran-4-yl)-4H-pyrazolo[1,5-a]quinazolin-5-one], for which the half-maximal inhibitory concentration (IC50) in data set [1] was less than 1000 nM.
Still for that read-out and setting: next, `Cn1c(=O)c2ccc(-c3cccc(S(N)(=O)=O)c3)cc2n2nc(C3CCOCC3)cc12` [Example 100, 3-[4-Methyl-5-oxo-2-(tetrahydro-pyran-4-yl)-4,5-dihydro-pyrazolo[1,5-a]quinazolin-8-yl]-benzenesulfonamide]: less than 1000 nM.
On the same count and under the same terms, to `Cc1cc(-c2ccc3c(=O)n(C)c4cc(C5CCCO5)nn4c3c2)cc(C)n1` (stereo not drawn) [Example 107, 8-(2,6-Dimethyl-pyridin-4-yl)-4-methyl-2-(tetrahydro-furan-2-yl)-4H-pyrazolo[1,5-a]quinazolin-5-one] belongs less than 1000 nM; to `Cc1cc(-c2cc3n(C)c(=O)c4ccc(-c5ccc(N)nc5)cc4n3n2)cc(C)n1` [Example 112, 8-(6-Amino-pyridin-3-yl)-2-(2,6-dimethyl-pyridin-4-yl)-4-methyl-4H-pyrazolo[1,5-a]quinazolin-5-one], less than 1000 nM.
Still for that read-out and setting: next, `Cc1cc(-c2cc3n(C)c(=O)c4ccc(-c5cccnc5C)cc4n3n2)cc(C)n1` [Example 113, 2-(2,6-Dimethyl-pyridin-4-yl)-4-methyl-8-(2-methyl-pyridin-3-yl)-4H-pyrazolo[1,5-a]quinazolin-5-one]: less than 1000 nM; `Cc1cc(-c2ccc3c(=O)n(C)c4cc(-c5cc(C)nc(C)c5)nn4c3c2)cc(C)n1` [Example 114, 2,8-Bis-(2,6-dimethyl-pyridin-4-yl)-4-methyl-4H-pyrazolo[1,5-a]quinazolin-5-one]: less than 1000 nM.
On to `Cc1cc(-c2cc3n(C)c(=O)c4ccc(-c5cccnc5)cc4n3n2)cc(C)n1` [Example 116, 2-(2,6-Dimethyl-pyridin-4-yl)-4-methyl-8-pyridin-3-yl-4H-pyrazolo[1,5-a]quinazolin-5-one], for which the IC50 in data set [1] is less than 1000 nM.
Same read-out and setting: next, `Cc1ccc(-c2ccc3c(=O)n(C)c4cc(-c5cc(C)nc(C)c5)nn4c3c2)cn1` [Example 117, 2-(2,6-Dimethyl-pyridin-4-yl)-4-methyl-8-(6-methyl-pyridin-3-yl)-4H-pyrazolo[1,5-a]quinazolin-5-one]: less than 1000 nM; `Cc1cncc(-c2ccc3c(=O)n(C)c4cc(-c5cc(C)nc(C)c5)nn4c3c2)c1` [Example 118, 2-(2,6-Dimethyl-pyridin-4-yl)-4-methyl-8-(5-methyl-pyridin-3-yl)-4H-pyrazolo[1,5-a]quinazolin-5-one]: less than 1000 nM; `Cc1cc(-c2cc3n(C)c(=O)c4ccc(-c5cnccc5C)cc4n3n2)cc(C)n1` [Example 119, 2-(2,6-Dimethyl-pyridin-4-yl)-4-methyl-8-(4-methyl-pyridin-3-yl)-4H-pyrazolo[1,5-a]quinazolin-5-one]: less than 1000 nM.
With `Cc1cc(-c2cc3n(C)c(=O)c4ccc(-c5cccnc5C)cc4n3n2)ccn1` [Example 132, 2-(2-methyl-pyridin-4-yl)-4-methyl-8-(2-methyl-pyridin-3-yl)-4H-pyrazolo[1,5-a]quinazolin-5-one], the half-maximal inhibitory concentration (IC50) in data set [1] is less than 1000 nM.
Still for that read-out and setting: to `Cc1cc(-c2cc3n(C)c(=O)c4ccc(-c5cc(C)nc(C)c5)cc4n3n2)ccn1` [Example 133, 8-(2,6-Dimethyl-pyridin-4-yl)-4-methyl-2-(2-methyl-pyridin-4-yl)-4H-pyrazolo[1,5-a]quinazolin-5-one] belongs less than 1000 nM.
